{
  "source": "patent US20250352561A1",
  "about": "“COMPOSITIONS AND METHODS USING TETRAHYDROCANNABINOL AND COMPOSITIONS INCLUDING SAME FOR TREATING INDICATIONS INVOLVING INFLAMMATION” (priority 2023, published 2025)",
  "key": {"[1]": {"settings": "cited from earlier work"}, "norepinephrine reuptake": {"system": "norepinephrine reuptake", "settings": "in vitro, rats; cited from earlier work"}, "serotonin uptake": {"system": "serotonin uptake", "settings": "in vitro, rats; cited from earlier work"}, "[2]": {"settings": "cited from earlier work", "remark": "listed apart in the source"}, "[3]": {"target": "sigma-1 non-opioid receptor (Homo sapiens, UniProt Q99720)", "sequence (Q99720 whole entry)": "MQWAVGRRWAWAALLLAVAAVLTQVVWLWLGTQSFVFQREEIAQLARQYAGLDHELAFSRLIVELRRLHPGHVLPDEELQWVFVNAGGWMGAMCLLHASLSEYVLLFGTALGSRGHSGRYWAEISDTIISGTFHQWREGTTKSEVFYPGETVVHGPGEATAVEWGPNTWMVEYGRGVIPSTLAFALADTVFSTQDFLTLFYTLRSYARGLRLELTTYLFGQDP", "settings": "compared with all pharmaceutical chemicals tested so far; cited from earlier work"}, "muscarinic receptors": {"system": "muscarinic receptors", "settings": "in vitro; cited from earlier work"}, "[4]": {"system": "beta adrenergic receptors", "settings": "in vitro; cited from earlier work"}, "dopaminergic receptors": {"system": "dopaminergic receptors", "settings": "in vitro; cited from earlier work"}, "[5]": {"settings": "hepatic dysfunction vs healthy subjects, cross study comparison; cited from earlier work"}, "[6]": {"system": "alpha adrenergic receptors", "settings": "in vitro; cited from earlier work"}, "histaminergic receptors": {"system": "histaminergic receptors", "settings": "in vitro; cited from earlier work"}, "[7]": {"settings": "cited from earlier work; for Multiple dose elimination half-life: steady state"}, "[8]": {"system": "plasma protein, mostly albumin", "settings": "concentration range of 20 to 2000 ng/mL, cited from earlier work"}, "[9]": {"system": "neuronal uptake of serotonin", "settings": "in vitro as well as in vivo; cited from earlier work"}, "[10]": {"system": "COVID-19 patients who required supplemental oxygen", "assay": "Retrospective clinical study of dronabinol plus standard of care in hospitalized COVID-19 patients requiring oxygen (Example 1)", "type": "in vivo, human"}, "[11]": {"system": "COVID-19-positive patients hospitalized for hypoxia", "assay": "Comparative analysis of dronabinol alone vs dronabinol plus fluvoxamine in COVID-19-positive patients hospitalized for hypoxia (Example 8, Table 6)", "method": "From October 2020 through December of 2020 a single infectious disease specialist treated consecutive adult COVID-19-positive patients hospitalized for hypoxia with oral dronabinol in addition to then current standard of care which consisted of ceftriaxone, azithromycin, dexamethasone, remdesivir, subcutaneous heparin, and convalescent plasma in addition to respiratory support per standard ICU protocols. Nine patients received 2.5 mg twice orally daily and 68 patients received 5 mg orally twice daily. A retrospective control group of consecutively treated COVID-19-positive patients hospitalized for hypoxia from June 2020 through August 2020, was treated with the same standard of care.\n15, 2021, twelve consecutive un-vaccinated COVID-19-positive patients hospitalized for hypoxia were treated by a single physician. They received current standard of care which consisted of ceftriaxone, azithromycin, dexamethasone, remdesivir, and Eliquis in addition to respiratory support per standard ICU protocols. […] One patient was excluded from analysis due to pre-COVID-19 oxygen dependence, and because they were still in the hospital as of this writing on their twelfth hospital day."}, "[12]": {"settings": "cited from earlier work", "remark": "listed apart in the source"}, "cytokine storm": {"system": "cytokine storm", "settings": "cited from earlier work"}, "[13]": {"settings": "fasted, n=34, cited from earlier work"}, "[14]": {"settings": "in vivo; cited from earlier work"}, "[15]": {"settings": "human, in vivo; cited from earlier work"}},
  "note": "Where a name gives a salt, the structure may show the parent alone. Read-outs that look alike come from different tables or passages of the source.",
  "data": [
    {"smiles": "COCCCC/C(=N\\OCCO)c1ccc(C(F)(F)F)cc1", "note": "[fluvoxamine ethanol]", "values": [
      {"measurement": "Share of urinary excretion products", "setting": "[1]; fluvoxamine ethanol", "result": "about 10%"}
    ]},
    {"smiles": "NCCO/N=C(\\CCCC(=O)O)c1ccc(C(F)(F)F)cc1", "note": "[fluvoxamine acid]", "values": [
      {"measurement": "Norepinephrine reuptake inhibition", "setting": "norepinephrine reuptake", "result": "inactive"},
      {"measurement": "Share of urinary excretion products", "setting": "[1]; fluvoxamine acid together with its N-acetylated analog", "result": "about 60%"},
      {"measurement": "Inhibition of serotonin uptake", "setting": "serotonin uptake", "result": "weak effect"},
      {"measurement": "Potency relative to the parent compound (less potent)", "setting": "serotonin uptake", "result": "1-2 orders of magnitude"}
    ]},
    {"smiles": "CCCCCc1cc(O)c2c(c1)OC(C)(C)[C@@H]1CCC(CO)=C[C@@H]21", "note": "[11-OH-delta-9-THC]", "values": [
      {"measurement": "Plasma concentration of principal active metabolite relative to Δ9-THC", "setting": "[2]; plasma", "result": "approximately equal concentrations"}
    ]},
    {"smiles": "COCCCC/C(=N\\OCCN)c1ccc(C(F)(F)F)cc1", "note": "[fluvoxamine, 2-[(E)-[5-methoxy-1-[4-(trifluoromethyl)phenyl]pentylidene]amino]oxyethanamine]", "values": [
      {"measurement": "Agonistic sigma-1 binding affinity", "setting": "[3]", "result": "strongest agonistic sigma-1 binding affinity"},
      {"measurement": "Affinity for muscarinic receptors", "setting": "muscarinic receptors", "result": "no significant affinity"},
      {"measurement": "Affinity for beta adrenergic receptors", "setting": "[4]", "result": "no significant affinity"},
      {"measurement": "Affinity for dopaminergic receptors", "setting": "dopaminergic receptors", "result": "no significant affinity"},
      {"measurement": "Decrease in clearance", "setting": "[5]", "result": 30, "unit": "%"},
      {"measurement": "Affinity for alpha adrenergic receptors", "setting": "[6]", "result": "no significant affinity"},
      {"measurement": "Mean plasma half-life at steady state", "setting": "[1]; human, in vivo, po", "result": 15.6, "unit": "h"},
      {"measurement": "Excreted in urine unchanged", "setting": "[1]; in vivo", "result": "Approximately 2%"},
      {"measurement": "Affinity for histaminergic receptors", "setting": "histaminergic receptors", "result": "no significant affinity"},
      {"measurement": "Reduction of clearance", "setting": "[7]; elderly patients", "result": "about 50%"},
      {"measurement": "Multiple dose elimination half-life", "setting": "[7]; elderly, 50 mg", "result": 17.4, "unit": "h"},
      {"measurement": "Multiple dose elimination half-life", "setting": "[7]; elderly, 100 mg", "result": 25.9, "unit": "h"},
      {"measurement": "Multiple dose elimination half-life", "setting": "[7]; young subjects, 50 mg", "result": 13.6, "unit": "h"},
      {"measurement": "Multiple dose elimination half-life", "setting": "[7]; young subjects, 100 mg", "result": 15.6, "unit": "h"},
      {"measurement": "Bound to plasma protein", "setting": "[8]", "result": "Approximately 80%"},
      {"measurement": "Bound to plasma protein", "setting": "[8]; listed as Fluvoxamine", "result": 80, "unit": "%"},
      {"measurement": "Serotonin reuptake inhibition", "setting": "[9]", "result": "potent serotonin reuptake inhibitor"}
    ]},
    {"smiles": "CCCCCc1cc(O)c2c(c1)OC(C)(C)[C@@H]1CCC(C)=C[C@@H]21", "note": "[dronabinol, (−)-(6aR,10aR)-6,6,9-trimethyl-3-pentyl-6a,7,8,10a-tetrahydro-6H-benzo[c]-chromen-1-ol]", "values": [
      {"measurement": "Deaths", "setting": "[10]; among the 77 patients in the treatment group", "result": 5},
      {"measurement": "Average first peak C-reactive protein (CRP) levels, difference (lower in treatment group)", "setting": "[10]; vs control, p-value of 0.07, not statistically significant", "result": 14, "unit": "%"},
      {"measurement": "# Survived", "setting": "[11]; 2.5 mg Dronabinol, total 9 in group", "result": 8},
      {"measurement": "LOS", "setting": "[11]; 5 mg Dronabinol, length of hospital stay", "result": 8.8},
      {"measurement": "# Survived", "setting": "[11]; 5 mg Dronabinol, total 68 in group", "result": 64},
      {"measurement": "Duration of appetite stimulant effect", "setting": "[12]; after administration", "result": "≥ 24", "unit": "h"},
      {"measurement": "Time to tolerance to cardiovascular and subjective adverse CNS effects", "setting": "[12]; healthy male volunteers (N=12), 210 mg/day orally in divided doses for 16 days", "result": "≤ 12", "unit": "days"},
      {"measurement": "Persistence of appetite stimulant effect", "setting": "[12]; patients with AIDS, Δ9-THC capsules 2.5 mg/day to 20 mg/day", "result": "sustained for up to five months"},
      {"measurement": "Mortality", "setting": "cytokine storm; animal model of cytokine storm induced ARF and/or ARDS", "result": "decrease mortality"},
      {"measurement": "Prevention of death of animals that received a fatal dose of the biotoxin", "setting": "cytokine storm; animal models", "result": "prevent the death of one hundred percent of all animals"},
      {"measurement": "Time for which low levels of metabolites are detected in urine and feces", "setting": "[2]; following single dose administration", "result": "more than 5 weeks"},
      {"measurement": "Oral dose recovered unchanged in the feces", "setting": "[2]; in vivo, po", "result": "Less than 5%"},
      {"measurement": "Administered dose reaching the systemic circulation", "setting": "[2]; oral dose", "result": "10-20%"},
      {"measurement": "Absorbed after oral dose", "setting": "[2]; single oral doses", "result": "90-95%"},
      {"measurement": "Initial (alpha) half-life", "setting": "[2]; two-compartment model", "result": "about 4 hours"},
      {"measurement": "Radio-labeled oral dose recovered from the feces", "setting": "[2]; within 72 hours", "result": "about half"},
      {"measurement": "AUC (0-12), Mean (SD)", "setting": "[13]; BID Dose 2.5 mg", "result": "2.88 (1.57) ng*hr/mL"},
      {"measurement": "Cmax, Mean (SD)", "setting": "[13]; BID Dose 2.5 mg", "result": "1.32 (0.62) ng/mL"},
      {"measurement": "Median Tmax (range)", "setting": "[13]; BID Dose 2.5 mg", "result": "1.00 (0.50-4.00) hr"},
      {"measurement": "AUC (0-12), Mean (SD)", "setting": "[13]; BID Dose 5 mg", "result": "6.16 (1.85) ng*hr/mL"},
      {"measurement": "Cmax, Mean (SD)", "setting": "[13]; BID Dose 5 mg", "result": "2.96 (1.81) ng/mL"},
      {"measurement": "Median Tmax (range)", "setting": "[13]; BID Dose 5 mg", "result": "2.50 (0.50-4.00) hr"},
      {"measurement": "AUC (0-12), Mean (SD)", "setting": "[13]; BID Dose 10 mg", "result": "15.2 (5.52) ng*hr/mL"},
      {"measurement": "Cmax, Mean (SD)", "setting": "[13]; BID Dose 10 mg", "result": "7.88 (4.54) ng/mL"},
      {"measurement": "Median Tmax (range)", "setting": "[13]; BID Dose 10 mg", "result": "1.50 (0.50-3.50) hr"},
      {"measurement": "Reported fatality from overdosage", "setting": "[14]", "result": "has not had a reported fatality from overdosage"}
    ]},
    {"smiles": "COCCCC/C(=N\\OCCN)c1ccc(C(F)(F)F)cc1", "note": "[fluvoxamine maleate]", "values": [
      {"measurement": "Time of maximum plasma concentrations at steady state", "setting": "[15]", "result": "3 to 8", "unit": "h"}
    ]}
  ]
}
